# In the supplement of paper PMC10307832:
# What was measured:
# Assay in all cases: relative viability (nuclei count vs DMSO), 5 days (fraction); higher = more cells survive
# Ibrutinib + Pictilisib = compound: C=CC(=O)N1CCC[C@@H](n2nc(-c3ccc(Oc4ccccc4)cc3)c3c(N)ncnc32)C1 [Ibrutinib] + CS(=O)(=O)N1CCN(Cc2cc3nc(-c4cccc5[nH]ncc45)nc(N4CCOCC4)c3s2)CC1 [Pictilisib] (partner 1 µM)
# Outline: (§1)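 Dosing by pin tool came one day after lung cancer cell lines were seeded in 1536-well plates, using either one drug or a fixed anchor-drug dose plus five library-drug doses (not always all listed) in √10 steps. After 5 days, nuclei were counted on 4× images. Relative viability is treated-well nuclei count divided by vehicle-well nuclei count, and values are medians of duplicate plates.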
# BMX-IN-1 + OSI-027 = compound: C=CC(=O)Nc1cc(-n2c(=O)ccc3cnc4ccc(-c5ccc(NS(C)(=O)=O)cc5)cc4c32)ccc1C [BMX-IN-1] + COc1cccc2cc(-c3nc([C@H]4CC[C@H](C(=O)O)CC4)n4ncnc(N)c34)[nH]c12 [OSI-027] (partner 0.5 µM)
# Outline: as §1
# BMX-IN-1 + Alpelisib = compound: C=CC(=O)Nc1cc(-n2c(=O)ccc3cnc4ccc(-c5ccc(NS(C)(=O)=O)cc5)cc4c32)ccc1C [BMX-IN-1] + Cc1nc(NC(=O)N2CCC[C@H]2C(N)=O)sc1-c1ccnc(C(C)(C)C(F)(F)F)c1 [Alpelisib] (partner 2 µM)
# Outline: as §1
# PAC-1 + Palbociclib = compound: C=CCc1cccc(/C=N/NC(=O)CN2CCN(Cc3ccccc3)CC2)c1O [PAC-1] + CC(=O)c1c(C)c2cnc(Nc3ccc(N4CCNCC4)cn3)nc2n(C2CCCC2)c1=O [Palbociclib] (partner 0.5 µM)
# Outline: as §1
Cell Line,relative viability (Ibrutinib + Pictilisib; first compound 0.005 µM),relative viability (Ibrutinib + Pictilisib; first compound 0.01581 µM),relative viability (Ibrutinib + Pictilisib; first compound 0.05 µM),relative viability (Ibrutinib + Pictilisib; first compound 0.1581 µM),relative viability (Ibrutinib + Pictilisib; first compound 0.5 µM),relative viability (BMX-IN-1 + OSI-027; first compound 0.02 µM),relative viability (BMX-IN-1 + OSI-027; first compound 0.2 µM),relative viability (BMX-IN-1 + OSI-027; first compound 0.6325 µM),relative viability (BMX-IN-1 + OSI-027; first compound 2 µM),relative viability (BMX-IN-1 + Alpelisib; first compound 0.02 µM),relative viability (BMX-IN-1 + Alpelisib; first compound 0.2 µM),relative viability (BMX-IN-1 + Alpelisib; first compound 0.6325 µM),relative viability (BMX-IN-1 + Alpelisib; first compound 2 µM),relative viability (PAC-1 + Palbociclib; first compound 0.02 µM),relative viability (PAC-1 + Palbociclib; first compound 0.06325 µM),relative viability (PAC-1 + Palbociclib; first compound 0.2 µM),relative viability (PAC-1 + Palbociclib; first compound 2 µM)
HCC-827,0.916,0.909,1.02,1.08,0.458,0.785,0.968,0.828,0.778,0.95,0.889,1.05,0.946,0.482,0.461,0.442,0.473
HOP-62,0.379,0.506,0.67,0.626,0.877,1.01,1.16,1.03,0.817,0.813,0.918,0.926,0.914,0.463,0.437,0.51,0.46
IA-LM,0.203,0.231,0.312,0.411,0.22,–,–,–,–,0.854,0.697,1.07,0.916,–,–,–,–
LC-2-ad,0.335,0.19,0.53,0.525,0.299,0.872,0.918,0.768,0.841,0.915,0.962,0.998,0.898,0.513,0.439,0.492,0.496
LCLC-97TM1,0.114,0.203,0.263,0.156,0.18,0.585,0.66,0.542,0.628,0.283,0.222,0.244,0.294,0.211,0.274,–,0.225
LCLC-103H,0.72,0.535,0.557,0.517,0.653,0.493,0.55,0.527,0.522,1.01,0.972,1.09,0.875,0.482,0.489,0.503,0.438
LK-2,–,0.472,0.532,0.494,0.488,0.219,0.188,0.187,0.242,1.75,1.43,1.04,0.993,0.536,0.809,0.616,0.63
LOU-NH91,0.451,0.475,0.512,0.487,0.487,0.717,–,0.772,0.679,–,0.686,0.768,0.709,0.573,0.539,0.526,0.515
LU99A,0.274,0.34,0.355,0.324,0.336,0.321,0.289,0.329,0.298,0.482,0.659,0.526,0.532,0.425,0.422,0.461,0.408
LXF-289,0.733,0.724,0.802,0.794,0.758,0.878,0.766,1.1,0.838,1.12,1.14,1.11,1.07,0.605,0.599,0.597,0.597
NCI-H23,0.319,0.458,0.562,0.391,0.395,0.549,0.728,0.581,0.713,0.617,0.793,0.603,0.692,0.629,0.521,0.524,0.533
NCI-H322M,0.431,0.562,0.597,0.374,0.467,0.581,0.534,0.618,0.502,0.882,0.825,0.757,0.772,0.434,0.42,0.519,0.466
NCI-H358,0.28,0.372,0.291,0.315,0.264,0.942,0.79,1.04,0.75,0.861,0.881,0.937,0.81,0.12,0.133,0.116,0.115
NCI-H441,0.586,0.551,0.619,0.435,0.449,0.708,0.753,0.649,0.68,0.658,0.917,1.04,0.641,0.194,0.266,0.26,0.2
NCI-H522,–,–,–,–,–,0.673,0.74,0.696,0.732,–,–,–,–,0.866,0.984,0.962,1.11
NCI-H596,0.43,0.406,0.442,0.392,0.393,0.924,0.856,0.781,0.81,0.511,0.535,0.544,0.54,–,–,–,–
NCI-H1299,0.571,0.555,0.773,0.699,0.854,–,–,–,–,1.14,1.17,1.1,1.16,–,–,–,–
NCI-H1563,0.663,0.635,0.677,0.607,0.602,0.838,0.757,0.697,0.642,0.997,0.902,0.904,0.893,–,–,–,–
NCI-H1623,–,–,–,–,–,0.42,0.456,0.528,0.409,–,–,–,–,–,–,–,–
NCI-H1648,–,–,–,–,–,0.223,0.249,0.265,0.272,–,–,–,–,0.299,0.243,0.26,0.228
NCI-H1650,0.493,0.52,0.506,0.515,0.476,0.69,0.544,0.84,0.606,–,–,–,–,0.334,0.375,0.333,0.274
NCI-H1703,–,0.233,0.205,0.241,0.222,–,–,–,–,0.359,0.254,0.269,0.252,–,–,–,–
NCI-H2342,–,–,–,–,–,0.687,0.649,0.608,0.585,–,–,–,–,0.531,0.561,0.54,0.564
SW 900,–,–,–,–,–,0.547,0.643,0.523,0.764,–,–,–,–,–,0.599,0.554,0.474
